In brackets after ≈: the same amount, converted by molar mass. Where two headings read alike, the source gives them in different places.
Experiments:
HIV-1 IIIB strain = assay: MT-4 HIV Wild Type Virus Infection Assay (IIIB Virus); assay type: cell-based; conditions: MT-4 cells acutely infected with HIV-1 IIIB, 5 day incubation, Cell-titer glo
Experimental: Test compounds and controls were serially diluted and spotted in replicate into 384 well black assay plates via acoustic transfer (Echo). MT-4 cells were grown in batch, centrifuged and resuspended into fresh CCM media (RPMI w/10% FBS, 1% PS) at 2×10^6 cells/ml. MT-4 cells were acutely infected with HIV-1 IIIB strain. The size of each infection mix was scaled by the number of sample plates to be tested. Each infection mix was transferred into 5 mL closed tubes and nutated rapidly on a shaker at 37° C. incubator for 1 hour. The infection mixes were then diluted 25× in fresh cell culture media and then added to assay plates at 40 μL per well using a ViaFlo 384 pipettor. After 5 day incubation at 37° C. in a CO2 incubator, assay plates were processed with Cell-titer glo reagent using a ViaFlo 384 with an addition/mixing program. Plates were read immediately on Envision reader. Assay signals were plotted and dose response curves generated to determine individual compound EC50s.

Solubility in FaSSIF = conditions: 23 °C, pH 6.5, fassif, thermodynamic from solid
Experimental: Buffer Preparation: Fasted State Simulated Intestinal Fluid (FaSSIF): Simulated Intestinal Fluid (SIF) powder containing a complex of Taurocholate and Lecithin (4:1 molar ratio) was obtained from Biorelevant. 0.056 g of SIF powder was added to 25 mL of buffer, adjusted to pH 6.5, containing 0.011 g of NaOH (pellets), 0.099 g of NaH2PO4 (monohydrate), and 0.155 g of NaCl. The buffer was prepared with HPLC H2O. The SIE powder was stirred until completely dissolved and allowed to stand for 2 hours.
Test Compounds: Each test compound was placed in a vial containing approximately 7 mg of material. Aliquots were weighed out for each assay media at each time point to be analyzed. The buffer was added to each vial such that the final dose concentration of 5 mg/mL was achieved. Samples were then vortexed for 5-10 seconds.
The plate was sealed with a pierceable heat seal and analyzed by HPLC-UV.

[1] = target: bovine intestinal alkaline phosphatase (Bos taurus (Bovine), UniProt P19111); assay: BiALP: conversion by bovine intestinal alkaline phosphatase; assay type: in vitro ADME; conditions: 2 μM substrate, 100 ng/mL iALP, Tris pH 7.8, 37° C., 60 minutes; for [Intermediate A] or [Amprenavir]: parent formed
bovine intestinal alkaline phosphatase, sequence (P19111 20-506): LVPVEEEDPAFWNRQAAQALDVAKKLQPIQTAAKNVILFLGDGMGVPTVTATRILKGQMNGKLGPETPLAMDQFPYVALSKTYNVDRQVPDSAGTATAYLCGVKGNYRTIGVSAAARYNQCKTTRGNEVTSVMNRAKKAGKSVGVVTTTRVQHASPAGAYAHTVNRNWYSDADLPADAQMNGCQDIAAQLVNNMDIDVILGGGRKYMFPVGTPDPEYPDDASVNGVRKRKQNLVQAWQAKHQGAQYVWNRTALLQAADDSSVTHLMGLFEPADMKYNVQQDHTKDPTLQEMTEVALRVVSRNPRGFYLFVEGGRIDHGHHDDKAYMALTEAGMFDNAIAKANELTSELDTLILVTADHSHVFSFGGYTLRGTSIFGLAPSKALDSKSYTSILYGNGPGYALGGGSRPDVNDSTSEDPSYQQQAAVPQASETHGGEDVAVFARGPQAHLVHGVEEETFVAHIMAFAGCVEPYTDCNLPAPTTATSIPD
Experimental: Fosamprenavir and its parent compound (amprenavir) were purchased from Millipore Sigma (St. Louis, MO). Test compounds, Intermediate A, fosamprenavir, and amprenavir were each separately dissolved in dimethyl sulfoxide (DMSO) at a concentration of 10 mM to form stock solutions.
All other chemicals were purchased from Millipore Sigma (St. Louis, MO) and Thermo Fisher Scientific (Waltham, MA). […] Internal Standard/Quench (IS/Q) was 100 nM labetalol in 99:1 (v/v) acetonitrile/formic acid.
Incubations were performed with Tris buffer alone (0.1 M Tris-HCl pH 7.8 containing 1 mM MgCl2 and 1 mM ZnCl2) or the same Tris buffer further containing 100 ng/mL iALP (0.01 units/mL). Triplicate 100 μL aliquots of Tris buffer±iALP were warmed to 37° C. and the reactions were initiated by the addition of the test compound or fosamprenavir to obtain final substrate concentrations of 2 μM. Incubations were then continued at 37° C. At 60 minutes, reactions were terminated by the addition of 200 μl of IS/Q and mixed by pipette. […] Aliquots (150 μL) of the supernatants were transferred to fresh plates containing 150 μL of water. Aliquots (15 μL) of the diluted supernatants were analyzed by mass spectrometry as described below.
Quantification of the test compounds and fosamprenavir was performed by analyte/internal standard peak area ratios (PARs) with comparison to 2 μM Intermediate A and amprenavir, respectively. The LC instrumentation consisted of a Thermo Scientific Vanquish pump and a Thermo Hypersil Gold column (1.9 μm particle size, 2.1×50 mm). […] The MS instrument was a Thermo Q Exactive™ Plus operating in positive ionization mode with mass tolerance of 5 ppm and calibrated on a twice weekly basis.

PBS Stability Assay = assay type: physicochemical; conditions: phosphate buffered saline pH 7.4; for half-life at 2 μM: buffer, pH 7.4, 2 μM, read-out: PBS T½; for PBS T½: 2 μM
Experimental: Reagents. Stock solutions of test compounds in dimethyl sulfoxide (DMSO) having a final concentration of 10 mM were prepared and used in all experiments. Sekisui XenoTech (Kansas City, KS) provided pooled intestinal S9 fractions. All other chemicals were purchased from Sigma-Aldrich (St. Louis, MO) or VWR (West Chester, PA). Internal Standard/Quench (IS/Q) used to stop reactions was 100 nM labetalol in (by volume) formic acid (1%) and acetonitrile (99%).
PBS Stability Assay: For each test compound, an aliquot of the test compound was added to phosphate buffered saline (137 mM NaCl, 2.7 mM KCl, 10 mM phosphate buffer), pH 7.4. The incubation was initiated by the addition of the test compound to PBS to a final concentration of 2 μM. At 0, 10, 20, 30, 60 and 120 min, 25 μL aliquots of the incubation mixture were transferred to plates containing 225 μl of IS/Q solution. After quenching, the plates were centrifuged at 3000×g for 30 minutes. 150 μL aliquots of each supernatant were transferred to new plates and 150 μL water was added. Aliquots (10 μL) of the prepared samples were analyzed on a Thermo Q-Exactive mass spectrometer as described below.
Liquid Chromatography-Mass Spectrometry: Quantification of test compounds and control substrate was performed by analyte/internal standard peak area ratio (PAR) values measured on a Thermo Q-Exactive mass spectrometer coupled to a Dionex UltiMate 3000 HPLC with a Leap Technologies HTC PAL autosampler. The column used for analysis was a Thermo Scientific Hypersil GOLD (1.9 μm particle size, 50×2.1 mm). Mobile phase A consisted of 0.1% (v/v) formic acid in water. Mobile phase B consisted of 0.1% (v/v) formic acid in acetonitrile. Elution of analytes was achieved by a series of linear gradients varying the proportions of A and B. The mass spectrometer was calibrated on a weekly basis and mass tolerance of 5 ppm was used.
Data Analysis. Metabolic stabilities were determined by measuring the rates of disappearance of test compound and positive control substrate. Data (% of substrate remaining) were plotted on a semi-log scale and fitted using an exponential decline model:
where • Ct% of substrate remaining at time=t • C0% of substrate remaining at time=0 • t time • T½ half-life • The Half-life (T½) is determined by the following equation:
[formula] • Assuming a first-order reaction, the slope (k) is extrapolated from the aforementioned plotted data.

[2] = Human immunodeficiency virus 1, IIIB, MT4, 120 h

| Compound | EC50 (HIV-1 IIIB strain; [2]) [nM] | solubility at 2 h (Solubility in FaSSIF) [µg/mL] | [Compound] [1] [nM] | biALP Intermediate A or [Amprenavir] (% of total) [1] | [Intermediate A] or [Amprenavir] [1] [nM] | half-life at 2 μM (PBS Stability Assay) [min] | EC50 (HIV-1 IIIB strain; Human immunodeficiency virus 1, IIIB, MT4, 120 h, read-out: EC50) [nM] | solubility (Solubility in FaSSIF; FaSSIF (pH 6.5) solubility, FaSSIF pH 6.5, dose 5 mg/mL, 2-hour incubation, ambient temperature) [µg/mL] | PBS T½ (PBS Stability Assay) [min] | EC50 (HIV-1 IIIB strain) [nM] |
| --- | --- | --- | --- | --- | --- | --- | --- | --- | --- | --- |
| COC(=O)N[C@H](C(=O)N[C@@H](Cc1ccc(C#Cc2cnc(N3CC4CCC(C3)N4C3COC3)nc2)cc1)[C@H](CN(Cc1c(F)cc(-c2ccn(C(F)F)n2)cc1F)NC(=O)[C@@H](NC(=O)OC)C(C)(C)C(F)(F)F)OC(=O)CC(C)(C)c1c(CC(=O)N(CCCC(=O)O)CC(=O)O)cc(C)cc1OP(=O)(O)O)C(C)(C)C(F)(F)F [Example 8] | 230 | 3260 (≈ 2000 µM) | 1709.4 | 8.4 % of total | 157.3 | 427 | – | – | – | – |
| COC(=O)N[C@H](C(=O)N[C@@H](Cc1ccc(C#Cc2cnc(N3CC4CCC(C3)N4C3COC3)nc2)cc1)[C@H](CN(Cc1c(F)cc(-c2ccn(C(F)F)n2)cc1F)NC(=O)[C@@H](NC(=O)OC)C(C)(C)C(F)(F)F)OC(=O)OCOC(=O)CC(C)(C)c1c(CC(=O)O)cc(C)cc1OP(=O)(O)O)C(C)(C)C(F)(F)F [Example 20] | – | – | 1351.2 | 48.6 % of total | 1276.2 | 390 | 0.7 | 220 (≈ 141 µM) | – | – |
| COC(=O)N[C@H](C(=O)N[C@@H](Cc1ccc(C#Cc2cnc(N3CC4CCC(C3)N4C3COC3)nc2)cc1)[C@H](CN(Cc1c(F)cc(-c2ccn(C(F)F)n2)cc1F)NC(=O)[C@@H](NC(=O)OC)C(C)(C)C(F)(F)F)OC(=O)OCOC(=O)CC(C)(C)c1c(CC(=O)NCCS(=O)(=O)O)cc(C)cc1OP(=O)(O)O)C(C)(C)C(F)(F)F [Example 21] | 3.6 | 4340 (≈ 2610 µM) | 1281.9 | 44.7 % of total | 1034.6 | – | – | – | 789 | – |
| COC(=O)N[C@H](C(=O)N[C@@H](Cc1ccc(C#Cc2cnc(N3CC4CCC(C3)N4C3COC3)nc2)cc1)[C@H](CN(Cc1c(F)cc(-c2ccn(C(F)F)n2)cc1F)NC(=O)[C@@H](NC(=O)OC)C(C)(C)C(F)(F)F)OC(=O)OCOC(=O)CC(C)(C)c1c(CC(=O)NCC(=O)NS(C)(=O)=O)cc(C)cc1OP(=O)(O)O)C(C)(C)C(F)(F)F [Example 22] | 9.9 | 4720 (≈ 2790 µM) | 1221.6 | 54.6 % of total | 1468.7 | 373 | – | – | – | – |
| COC(=O)N[C@H](C(=O)N[C@@H](Cc1ccc(C#Cc2cnc(N3CC4CCC(C3)N4C3COC3)nc2)cc1)[C@H](CN(Cc1c(F)cc(-c2ccn(C(F)F)n2)cc1F)NC(=O)[C@@H](NC(=O)OC)C(C)(C)C(F)(F)F)OC(=O)CC(C)(C)c1c(CC(=O)NCCCS(=O)(=O)O)cc(C)cc1OP(=O)(O)O)C(C)(C)C(F)(F)F [Example 25] | 62.7 | 2410 (≈ 1500 µM) | 2023.7 | – | – | 82.4 | – | – | – | – |
| COC(=O)N[C@H](C(=O)N[C@@H](Cc1ccc(C#Cc2cnc(N3CC4CCC(C3)N4C3COC3)nc2)cc1)[C@H](CN(Cc1c(F)cc(-c2ccn(C(F)F)n2)cc1F)NC(=O)[C@@H](NC(=O)OC)C(C)(C)C(F)(F)F)OC(=O)CC(C)(C)c1c(CC(=O)NCCC(=O)O)cc(C)cc1OP(=O)(O)O)C(C)(C)C(F)(F)F [Example 26] | 96.9 | 1440 (≈ 923 µM) | 1764 | – | – | 146 | – | – | – | – |
| COC(=O)N[C@H](C(=O)N[C@@H](Cc1ccc(C#Cc2cnc(N3CC4CCC(C3)N4C3COC3)nc2)cc1)[C@H](CN(Cc1c(F)cc(-c2ccn(C(F)F)n2)cc1F)NC(=O)[C@@H](NC(=O)OC)C(C)(C)C(F)(F)F)OC(=O)CC(C)(C)c1c(CC(=O)NC(CP(=O)(O)O)C(=O)O)cc(C)cc1OP(=O)(O)O)C(C)(C)C(F)(F)F (stereo partly drawn) [Example 34] | 179 | 4810 (≈ 2940 µM) | 2238.2 | – | – | 305 | – | – | – | – |
| COC(=O)N[C@H](C(=O)N[C@@H](Cc1ccc(C#Cc2cnc(N3CC4CCC(C3)N4C3COC3)nc2)cc1)[C@H](CN(Cc1c(F)cc(-c2ccn(C(F)F)n2)cc1F)NC(=O)[C@@H](NC(=O)OC)C(C)(C)C(F)(F)F)OC(=O)CC(C)(C)c1c(CC(=O)N(CCCC(=O)O)CCC(=O)O)cc(C)cc1OP(=O)(O)O)C(C)(C)C(F)(F)F [Example 36] | 97.4 | 4260 (≈ 2590 µM) | 1383.3 | – | – | 656 | – | – | – | – |
| COC(=O)N[C@H](C(=O)N[C@@H](Cc1ccc(C#Cc2cnc(N3CC4CCC(C3)N4C3COC3)nc2)cc1)[C@H](CN(Cc1c(F)cc(-c2ccn(C(F)F)n2)cc1F)NC(=O)[C@@H](NC(=O)OC)C(C)(C)C(F)(F)F)OC(=O)CC(C)(C)c1c(CC(=O)NC(CCCC(=O)O)CC(=O)O)cc(C)cc1OP(=O)(O)O)C(C)(C)C(F)(F)F (stereo partly drawn) [Example 37] | 41.8 | 4460 (≈ 2720 µM) | 1518.9 | – | – | 439 | – | – | – | – |
| COC(=O)N[C@H](C(=O)N[C@@H](Cc1ccc(C#Cc2cnc(N3CC4CCC(C3)N4C3COC3)nc2)cc1)[C@H](CN(Cc1c(F)cc(-c2ccn(C(F)F)n2)cc1F)NC(=O)[C@@H](NC(=O)OC)C(C)(C)C(F)(F)F)OC(=O)CC(C)(C)c1c(CC(=O)NC(CCCC(=O)O)C(=O)O)cc(C)cc1OP(=O)(O)O)C(C)(C)C(F)(F)F (stereo partly drawn) [Example 42] | – | 4020 (≈ 2470 µM) | 1335 | – | – | – | – | – | 361.5 | 49.1 |

Source: patent US20250051375A1, “ANTI-HIV COMPOUNDS” (Gilead Sciences, Inc., priority 2023, published 2025)
